The assay has as its target T1, MAGL protein (Homo sapiens, UniProt Q99685).
T1 sequence (Q99685 1-303): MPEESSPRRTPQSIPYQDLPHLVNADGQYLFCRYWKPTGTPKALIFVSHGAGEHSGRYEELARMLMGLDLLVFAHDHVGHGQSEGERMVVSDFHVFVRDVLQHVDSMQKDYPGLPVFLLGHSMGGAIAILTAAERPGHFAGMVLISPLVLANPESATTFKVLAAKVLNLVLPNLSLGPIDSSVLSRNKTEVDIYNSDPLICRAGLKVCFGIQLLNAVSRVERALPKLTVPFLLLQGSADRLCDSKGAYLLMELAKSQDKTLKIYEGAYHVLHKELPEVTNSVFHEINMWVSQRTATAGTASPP
Kind of assay: 2-AG assay: MAGL inhibitory activity by hydrolysis of 2-arachidonoylglycerol to arachidonic acid, followed by mass spectrometry. It counts as biochemical. The following applies: 8 μM 2-arachidonoylglycerol, 15 min preincubation, 30 min reaction at RT, RapidFire MS readout. Put shortly: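 MAGL was preincubated 15 min at RT with compound (12.5 to […], 3-fold steps) in 50 mM TRIS, 1 mM EDTA, 0.01% Tween-20, 2.5% DMSO. The reaction ran 30 min at RT with 8 μM 2-AG. Arachidonic acid was quantified by RapidFire SPE-MS/MS against a d8-arachidonic acid internal standard.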
By IC50 is commonly meant the concentration at which inhibition is half-maximal. Molecule `O=C(N1CC(C23CC(Cn4cc(C(F)(F)F)ccc4=O)(C2)C3)C1)N1CC2(CC(c3nc(C4CC4)n[nH]3)C2)C1` [compound 946] gave an IC50 of 1.05 nM.

Consider `O=C(N1CC(C23CC(Cn4ccc(C(F)(F)F)cc4=O)(C2)C3)C1)N1CC2(CC(c3nc(C4CC4)n[nH]3)C2)C1` [compound 947], for which the IC50 was 9.12 nM.

`O=C(N1CC(C23CC(Cn4cc(C(F)(F)F)cn4)(C2)C3)C1)N1CC2(CC(c3nc(C4CC4)n[nH]3)C2)C1` [compound 949] had an IC50 of 0.16 nM.

For the molecule `N=S(=O)(c1cnn(CC2CC3(C2)CN(C(=O)N2CC4(CC(c5nc(C6CC6)n[nH]5)C4)C2)C3)c1)C(F)(F)F` (centres unmarked) [compound 950], the IC50 was determined as 3.03 nM.

Molecule `O=C(N1CC2(CC(Cn3cc(S(=O)(=O)C(F)(F)F)cn3)C2)C1)N1CC2(CC(c3nc(C4CC4)n[nH]3)C2)C1` [compound 951] yielded an IC50 of 0.28 nM.

Consider `CS(=N)(=O)c1ccc(CC2CC3(C2)CN(C(=O)N2CC4(CC(c5nc(C6CC6)n[nH]5)C4)C2)C3)cc1C(F)(F)F` (centres unmarked) [compound 952], for which half-maximal inhibition (IC50) was put at 1.74 nM.

Molecule `CS(=O)(=O)c1cnn(CC2CC3(C2)CN(C(=O)N2CC4(CC(c5nc(C6CC6)n[nH]5)C4)C2)C3)c1` [compound 953] gave an IC50 of 11.2 nM.

`O=C(N1CC2(CC(Cc3c[nH]c(=O)c(C(F)F)c3)C2)C1)N1CC2(CC(c3nc(C4CC4)n[nH]3)C2)C1` [compound 954] had an IC50 of 1.42 nM.

In the case of `O=C(N1CC2(CC(Cc3cc(C(F)F)c[nH]c3=O)C2)C1)N1CC2(CC(c3nc(C4CC4)n[nH]3)C2)C1` [compound 956], the IC50 is 1.48 nM.

In turn, `O=C(N1CC2(CC(c3nc(C4CC4)n[nH]3)C2)C1)N1CC2(CN(Cc3noc(C(F)(F)F)n3)C2)C1` [compound 957] had an IC50 of 97.3 nM.

For `O=C(N1CC2(CC(c3nc(C4CC4)n[nH]3)C2)C1)N1CC2(CN(Cc3nc(C4(C(F)(F)F)CC4)no3)C2)C1` [compound 959], the IC50 is 7.44 nM.

Molecule `O=C(N1CC2(CC(Cn3cc(C(F)(F)F)ncc3=O)C2)C1)N1CC2(CC(c3nc(C4CC4)n[nH]3)C2)C1` [compound 960] came in with an IC50 of 5.16 nM.

In the case of `O=C(N1CC2(CC(Cc3ncn(CC(F)(F)F)n3)C2)C1)N1CC2(CC(c3nc(C4CC4)n[nH]3)C2)C1` [compound 962], the concentration for half-maximal inhibition (IC50) worked out at 4.41 nM.

Molecule `O=C(N1CC2(CC(c3nc(C4CC4)n[nH]3)C2)C1)N1CC2(CN(Cc3ccc(OCC(F)(F)F)nc3)C2)C1` [compound 963] showed an IC50 of 3.95 nM.

In turn, `O=C(N1CC2(CC(Cn3cncc3C3(C(F)(F)F)CC3)C2)C1)N1CC2(CC(c3nc(C4CC4)n[nH]3)C2)C1` [compound 964] showed a concentration for half-maximal inhibition (IC50) of 0.44 nM.

Take `CC(C)Oc1nc(CC2CC3(C2)CN(C(=O)N2CC4(CC(c5nc(C6CC6)n[nH]5)C4)C2)C3)ccc1C(F)(F)F` [compound 965]: the IC50 came out at 0.03 nM.

`Cc1cc([C@@H](C)C2CC3(C2)CN(C(=O)N2CC4(CC(c5nc(C6CC6)n[nH]5)C4)C2)C3)ncc1C(F)(F)F` [compound 966] registered an IC50 of 0.14 nM.

As to `Cc1cc([C@H](C)C2CC3(C2)CN(C(=O)N2CC4(CC(c5nc(C6CC6)n[nH]5)C4)C2)C3)ncc1C(F)(F)F` [compound 967], 0.18 nM corresponded to half-maximal inhibition (IC50).

The molecule `O=C(N1CC(c2ccc(C3(S(=O)(=O)C(F)(F)F)CC3)cc2)C1)N1CC2(CC(c3nc(C4CC4)n[nH]3)C2)C1` [compound 968] came in with an IC50 of 0.05 nM.

As to `O=C(N1CC2(CC(Oc3cc(C(F)(F)F)ccn3)C2)C1)N1CC2(CC(c3nc(C4CC4)n[nH]3)C2)C1` [compound 969], the IC50 stood at 0.42 nM.

For the molecule `O=C(N1CC2(CC(COc3ccc(C(F)(F)F)cn3)C2)C1)N1CC2(CC(c3nc(C4CC4)n[nH]3)C2)C1` [compound 970], the IC50 turned out to be 0.16 nM.

`O=C(N1CC2(CC(c3nc(C4CC4)n[nH]3)C2)C1)N1CC2(CN(Cc3ccn(CCC(F)(F)F)n3)C2)C1` [compound 972] came in with an IC50 of 81.1 nM.

`O=C(N1CC2(CC(Cn3nccc3C3CC3)C2)C1)N1CC2(CC(c3nc(C4CC4)n[nH]3)C2)C1` [compound 973] showed an IC50 of 0.27 nM.

As for `O=C(N1CC(C23CC(C(F)(F)c4ccc(C(F)(F)F)cc4)(C2)C3)C1)N1CC2(CC(c3nc(C4(O)CC4)n[nH]3)C2)C1` [compound 974], the IC50 was 6.17 nM.

As for `Cc1cc(C23CC(C4CN(C(=O)N5CC6(CC(c7nc(C8CC(F)(F)C8)n[nH]7)C6)C5)C4)(C2)C3)[nH]n1` [compound 975], inhibition was half-maximal at 1550 nM (IC50).

`CS(=N)(=O)c1ccc(CC2CC3(C2)CN(C(=O)N2CC4(CC(c5nc(C6CC(F)(F)C6)n[nH]5)C4)C2)C3)cc1` (centres unmarked) [compound 976] yielded an IC50 of 1790 nM.

In the case of `CS(=O)(=O)c1ccc(CC2CC3(C2)CN(C(=O)N2CC4(CC(c5nc(C6CC(F)(F)C6)n[nH]5)C4)C2)C3)nc1` [compound 977], the IC50 came to 2580 nM.

Molecule `O=C(N1CC(c2cnc(N3CC(C(F)(F)F)C3)nc2)C1)N1CC2(CC(c3nc(C4CC(F)(F)C4)n[nH]3)C2)C1` [compound 978] came in with an IC50 of 2210 nM.

In turn, `CS(=O)(=O)c1ccc(-c2ccc(C3CN(C(=O)N4CC5(CC(c6ncn[nH]6)C5)C4)C3)cc2)c(Cl)c1` [compound 981] gave an IC50 of 1770 nM.

In turn, `O=C(N1CC2(CC(c3ncn[nH]3)C2)C1)N1CC2(CC(c3ccc(C(F)(F)F)cc3F)C2)C1` [compound 982] showed an IC50 of 4970 nM.

Consider `O=C(N1CC2(CC(CNC3(C(F)(F)F)CC3)C2)C1)N1CC2(CC(c3ncn[nH]3)C2)C1` [compound 983], for which the IC50 came to 2180 nM.

Regarding `CS(=O)(=O)c1ccc(CC2CC3(C2)CN(C(=O)N2CC4(CC(c5ncn[nH]5)C4)C2)C3)cc1C(F)(F)F` [compound 984], half-maximal inhibition (IC50) was put at 2770 nM.

Molecule `O=C(N1CC2(CC(Cc3cc(C(F)(F)F)ccn3)C2)C1)N1CC2(CC(c3ncn[nH]3)C2)C1` [compound 985] displayed an IC50 of 2990 nM.

Molecule `O=C(N1CC2(CC(Cc3ccc(C(F)(F)F)nc3)C2)C1)N1CC2(CC(c3ncn[nH]3)C2)C1` [compound 986] registered an IC50 of 2360 nM.

`O=C(N1CC2(CC(Cc3ccc(C(F)(F)F)cn3)C2)C1)N1CC2(CC(c3ncn[nH]3)C2)C1` [compound 987] yielded an IC50 of 2060 nM.

In the case of `O=C(N1CC2(CC(Cc3ncc(F)cc3F)C2)C1)N1CC2(CC(c3ncn[nH]3)C2)C1` [compound 988], the IC50 stood at 2070 nM.

`O=C(N1CC2(CC(Cc3ccc4c(C(F)(F)F)n[nH]c4c3)C2)C1)N1CC2(CC(c3nc(C4CC4)n[nH]3)C2)C1` [compound 989] yielded an IC50 of 0.05 nM.

Consider `O=C(N1CC2(CC(Cc3ccc4nc(C(F)(F)F)cn4c3)C2)C1)N1CC2(CC(c3nc(C4CC4)n[nH]3)C2)C1` [compound 990], for which the IC50 turned out to be 0.59 nM.

The molecule `O=C(N1CC2(CC(Cc3cn4cc(C(F)(F)F)nc4cn3)C2)C1)N1CC2(CC(c3nc(C4CC4)n[nH]3)C2)C1` [compound 991] showed an IC50 of 2.03 nM.

As for `O=C(N1CC2(CC(Cc3ccc4cnc(C(F)(F)F)n4c3)C2)C1)N1CC2(CC(c3nc(C4CC4)n[nH]3)C2)C1` [compound 992], inhibition was half-maximal at 0.16 nM (IC50).

Consider `O=C(N1CC2(CC(Cc3ccc4nc(C(F)(F)F)nn4c3)C2)C1)N1CC2(CC(c3nc(C4CC4)n[nH]3)C2)C1` [compound 993], for which the IC50 stood at 0.8 nM.

In turn, `O=C(N1CC2(CC(Cc3ccc4[nH]nc(C(F)(F)F)c4c3)C2)C1)N1CC2(CC(c3nc(C4CC4)n[nH]3)C2)C1` [compound 994] gave an IC50 of 0.06 nM.

As to `O=C(N1CC2(CC(Cc3ccc4nnc(C(F)(F)F)n4c3)C2)C1)N1CC2(CC(c3nc(C4CC4)n[nH]3)C2)C1` [compound 995], the IC50 is 2.74 nM.

`O=C(N1CC2(CC(Cc3cnc4cc(C(F)(F)F)nn4c3)C2)C1)N1CC2(CC(c3nc(C4CC4)n[nH]3)C2)C1` [compound 996]: the IC50 was 0.6 nM.

These data come from patent US20250099448A1, “HETEROCYCLIC COMPOUNDS” (Hoffmann-La Roche Inc., priority 2022, published 2025).
